# Assay results reported in patent publication US10414811B2, “Protease-resistant lipidated GLP-1 analogs” (MEDIMMUNE LIMITED, priority 2015, dated 2019).
# pEC50: −log10 of the molar value. Read-outs that look alike come from different tables or passages of the source. Numbered stars: 1 amine (or outer) side, 2 acyl side, 3 side chain; on linkers, the order of the positions; unused ones are H or OH. Square brackets hold non-standard residues; d marks the D form. Side chains are listed from the residue outwards. Peptide text beside a SMILES is read from it. * marks the point of attachment. γGlu = O=C(O)[C@H](CCC(=O)[*:2])N[*:1]; Palmitoyl = CCCCCCCCCCCCCCCC(=O)*; αMeF = C[C@](N)(Cc1ccccc1)C(=O)O; αMeK = C[C@](N)(CCCCN)C(=O)O; Lauroyl = CCCCCCCCCCCC(=O)*; αMeS = C[C@](N)(CO)C(=O)O; AEEA = NCCOCCOCC(=O)O; Aib = CC(C)(N)C(=O)O
# How the values were obtained:
# Assay type in all cases: cell-based
# [1] = target: T1, GLP-1R (INS1e assay) (Rattus norvegicus, UniProt P32301); assay: INS1e assay, cAMP activity at GLP-1R; conditions: for EC50: mean of n1 and n2, read-out: INS1e assay EC50 Mean pM GLP-1R
# T1 construct: endogenous in cells; host or cells: INS-1E cells
# T1 sequence (P32301 22-463): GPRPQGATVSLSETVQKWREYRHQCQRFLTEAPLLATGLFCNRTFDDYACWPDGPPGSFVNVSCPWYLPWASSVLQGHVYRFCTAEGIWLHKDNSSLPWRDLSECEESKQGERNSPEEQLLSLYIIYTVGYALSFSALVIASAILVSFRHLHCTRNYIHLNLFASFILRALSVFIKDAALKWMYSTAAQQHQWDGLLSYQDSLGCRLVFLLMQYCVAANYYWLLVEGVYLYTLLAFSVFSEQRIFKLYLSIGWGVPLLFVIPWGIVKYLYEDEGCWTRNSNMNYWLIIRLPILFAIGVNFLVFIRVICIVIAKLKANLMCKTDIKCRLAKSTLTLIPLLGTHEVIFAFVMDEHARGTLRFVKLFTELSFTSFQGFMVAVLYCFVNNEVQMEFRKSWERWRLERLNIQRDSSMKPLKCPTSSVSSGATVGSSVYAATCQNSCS
# Outline: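 It pairs cAMP-d2 acceptor with anti-cAMP cryptate donor, both prepared 1/20 in conjugate/lysis buffer, applied as a two-step protocol.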
# [2] = target: T2, human glucagon receptor (GCGR) (Homo sapiens, UniProt P47871); assay: cAMP assay, human GCGR cells
# T2 construct: expressed in transfected cells
# T2 sequence (P47871 26-477): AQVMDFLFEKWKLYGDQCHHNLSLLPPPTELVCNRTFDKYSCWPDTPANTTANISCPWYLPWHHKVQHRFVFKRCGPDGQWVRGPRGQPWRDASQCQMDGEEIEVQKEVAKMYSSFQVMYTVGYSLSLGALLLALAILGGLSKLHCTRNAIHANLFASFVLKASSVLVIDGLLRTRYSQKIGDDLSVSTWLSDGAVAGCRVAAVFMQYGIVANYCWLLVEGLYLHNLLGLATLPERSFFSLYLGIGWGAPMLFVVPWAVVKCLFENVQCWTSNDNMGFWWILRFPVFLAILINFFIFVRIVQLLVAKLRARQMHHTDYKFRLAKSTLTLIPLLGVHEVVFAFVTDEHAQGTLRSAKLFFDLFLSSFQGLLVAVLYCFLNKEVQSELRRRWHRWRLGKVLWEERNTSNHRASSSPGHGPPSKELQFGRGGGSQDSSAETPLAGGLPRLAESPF
# Outline: (§1)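 Peptide-stimulated cAMP measured by two-step HTRF after a 30 min room-temperature incubation with receptor-expressing cells (hGLP-1R, hGIPR at 1×10^5 cells/ml; hGCGR at 2×10^5 cells/ml). Duplicate dilutions; EC50 from 4-parameter logistic fit of % Delta F.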
# [3] = target: T3, human GLP-1 receptor (GLP-1R) (Homo sapiens, UniProt P43220); assay: cAMP assay, human GLP-1R cells; conditions: for EC50: mean of n1 and n2
# T3 construct: expressed in transfected cells
# T3 sequence (P43220 24-463): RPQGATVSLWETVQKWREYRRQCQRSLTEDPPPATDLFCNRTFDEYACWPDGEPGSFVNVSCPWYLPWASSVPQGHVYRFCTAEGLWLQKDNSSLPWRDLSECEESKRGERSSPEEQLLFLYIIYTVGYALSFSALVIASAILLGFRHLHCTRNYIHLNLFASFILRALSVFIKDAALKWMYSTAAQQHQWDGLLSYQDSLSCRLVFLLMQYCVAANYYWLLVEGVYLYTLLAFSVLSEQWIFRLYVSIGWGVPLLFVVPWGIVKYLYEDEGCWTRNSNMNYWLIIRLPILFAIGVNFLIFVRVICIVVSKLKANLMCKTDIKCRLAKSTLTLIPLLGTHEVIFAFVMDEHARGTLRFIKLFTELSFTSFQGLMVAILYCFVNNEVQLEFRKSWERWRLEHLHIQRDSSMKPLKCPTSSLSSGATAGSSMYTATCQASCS
# Outline: as §1
# [4] = target: T4, human glucose-dependent insulinotropic peptide receptor (GIPR) (Homo sapiens, UniProt P48546); assay: cAMP assay, human GIPR cells
# T4 construct: expressed in transfected cells
# T4 sequence (P48546 22-466): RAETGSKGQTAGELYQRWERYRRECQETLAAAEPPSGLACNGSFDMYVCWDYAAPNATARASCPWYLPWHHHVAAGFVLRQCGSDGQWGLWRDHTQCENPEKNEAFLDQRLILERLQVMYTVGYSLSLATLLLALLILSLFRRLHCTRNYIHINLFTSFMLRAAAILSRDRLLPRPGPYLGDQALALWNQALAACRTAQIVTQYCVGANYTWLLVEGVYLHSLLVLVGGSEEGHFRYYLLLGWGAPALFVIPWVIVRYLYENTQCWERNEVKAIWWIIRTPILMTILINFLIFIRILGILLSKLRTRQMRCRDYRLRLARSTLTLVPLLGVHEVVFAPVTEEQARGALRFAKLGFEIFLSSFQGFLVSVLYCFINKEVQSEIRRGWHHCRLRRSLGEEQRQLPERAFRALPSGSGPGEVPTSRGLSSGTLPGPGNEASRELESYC
# Outline: as §1
EC50 ([1]; mono-lipidated peptides) [pM],"pEC50 ([1]; mono-lipidated peptides, replicate n1, read-out: INS1e assay EC50 GLP-1R n1)","pEC50 ([1]; mono-lipidated peptides, replicate n2, read-out: INS1e assay EC50 GLP-1R n2)","pEC50 ([2]; cAMP assay, first determination (n1), read-out: Primary assay EC50 Gluc-R (n1))","pEC50 ([2]; cAMP assay, second determination (n2), read-out: Primary assay EC50 Gluc-R (n2))","pEC50 ([3]; cAMP assay, first determination (n1), read-out: Primary assay EC50 GLP-1R n1)","pEC50 ([3]; cAMP assay, second determination (n2), read-out: Primary assay EC50 GLP-1R n2)",EC50 ([3]; read-out: Mean pM GLP-1R) [pM],"pEC50 ([4]; cAMP assay, first determination (n1), read-out: Primary assay EC50 GIP-R (n1))","pEC50 ([4]; cAMP assay, second determination (n2), read-out: Primary assay EC50 GIP-R (n2))",EC50 ([1]; tris-lipidated peptides) [pM],"pEC50 ([1]; tris-lipidated peptides, replicate n1, read-out: INS1e assay EC50 GLP-1R n1)","pEC50 ([1]; tris-lipidated peptides, replicate n2, read-out: INS1e assay EC50 GLP-1R n2)","pEC50 ([2]; tris-lipidated peptides, second replicate, read-out: Primary assay EC50 Gluc-R (n2))","EC50 ([3]; tris-lipidated peptides, read-out: Primary assay EC50 Mean pM GLP-1R) [pM]","pEC50 ([3]; tris-lipidated peptides, replicate n1, read-out: Primary assay EC50 GLP-1R n1)","pEC50 ([3]; tris-lipidated peptides, replicate n2, read-out: Primary assay EC50 GLP-1R n2)","pEC50 ([4]; tris-lipidated peptides, second replicate, read-out: Primary assay EC50 GIP-R (n2))",Compound
195,9.82,9.62,≤ 7.57,≤ 7.57,11.52,11.70,2.5,≤ 7.57,≤ 7.57,,,,,,,,,CCCCCCCCCCCCCCCC(=O)N[C@@H](CCC(=O)NCCCC[C@H](NC(=O)[C@H](CCC(=O)O)NC(=O)CNC(=O)[C@H](CCC(=O)O)NC(=O)[C@H](CC(C)C)NC(=O)[C@](C)(Cc1ccccc1)NC(=O)[C@H](CO)NC(=O)[C@](C)(CO)NC(=O)[C@@H](NC(=O)[C@H](CC(=O)O)NC(=O)[C@H](CO)NC(=O)[C@@H](NC(=O)[C@](C)(Cc1ccccc1)NC(=O)[C@H](CO)NC(=O)CNC(=O)[C@H](CCC(=O)O)NC(=O)C(C)(C)NC(=O)[C@@H](N)Cc1c[nH]cn1)[C@@H](C)O)C(C)C)C(=O)N[C@@H](C)C(=O)N[C@@](C)(CCCCN)C(=O)N[C@@H](CCC(=O)O)C(=O)N[C@@](C)(Cc1ccccc1)C(=O)N[C@H](C(=O)N[C@@H](C)C(=O)N[C@@](C)(Cc1ccccc1)C(=O)N[C@H](C(=O)N[C@H](C(=O)N[C@@](C)(CCCCN)C(=O)NCC(=O)NCC(N)=O)C(C)C)C(C)C)[C@@H](C)CC)C(=O)O [compound 82] (H-H[Aib]EGS[αMeF]TSDV[αMeS]S[αMeF]LEGEK([γGlu-Palmitoyl])A[αMeK]E[αMeF]IA[αMeF]VV[αMeK]GG-NH2; N-terminus assumed)
,,,,,,,,,,8920,8.00,8.10,7.70,55.4,10.31,10.21,7.70,CCCCCCCCCCCC(=O)N[C@@H](CCC(=O)NCCOCCOCC(=O)NCCOCCOCC(=O)NCCCC[C@H](NC(=O)[C@H](C)NC(=O)[C@@H](NC(=O)[C@H](Cc1ccccc1)NC(=O)[C@H](CCC(=O)O)NC(=O)[C@](C)(CCCCN)NC(=O)[C@H](C)NC(=O)[C@H](C)NC(=O)[C@H](CCC(=O)O)NC(=O)[C@H](CCCCNC(=O)COCCOCCNC(=O)COCCOCCNC(=O)CC[C@H](NC(=O)CCCCCCCCCCC)C(=O)O)NC(=O)[C@H](CCC(=O)O)NC(=O)[C@H](CCCCNC(=O)COCCOCCNC(=O)COCCOCCNC(=O)CC[C@H](NC(=O)CCCCCCCCCCC)C(=O)O)NC(=O)[C@H](Cc1ccc(O)cc1)NC(=O)[C@H](CO)NC(=O)[C@](C)(CO)NC(=O)[C@@H](NC(=O)[C@H](CC(=O)O)NC(=O)[C@H](CO)NC(=O)[C@@H](NC(=O)[C@](C)(Cc1ccccc1)NC(=O)[C@H](CO)NC(=O)CNC(=O)[C@H](CCC(=O)O)NC(=O)C(C)(C)NC(=O)[C@@H](N)Cc1c[nH]cn1)[C@@H](C)O)C(C)C)[C@@H](C)CC)C(=O)N[C@H](C(=O)N[C@H](C(=O)N[C@@H](CCC(=O)O)C(=O)NCC(=O)NCC(N)=O)C(C)C)C(C)C)C(=O)O [compound 467] (H-H[Aib]EGS[αMeF]TSDV[αMeS]SYK([AEEA-AEEA-γGlu-Lauroyl])EK([AEEA-AEEA-γGlu-Lauroyl])EAA[αMeK]EFIAK([AEEA-AEEA-γGlu-Lauroyl])VVEGG-NH2; N-terminus assumed)
